# Data as given in US20220133894A1, “BISPHOSPHONATE-LINKED COMPOUNDS” (OREGON HEALTH & SCIENCE UNIVERSITY, priority 2019, published 2022).
# How the values were obtained:
# [1] = tested on: PC3-M cells; experiment: 7 day colony formation assay, chemotherapy with or without KBU2046; format: cell-based, human
# Procedure: To assess the impact of cytotoxic chemotherapy on PCa growth kinetics seven-day soft agar colony formation assays and three-day MTT cell growth inhibition assays were performed as described by us ([…] et al., Cancer Lett 352, 179-186 (2014)). MTT assays were in replicates of N=3, and were repeated, soft agar assays were in replicates of N=2 and are presented as mean number of colonies, expressed as percent of untreated controls. For PC3-M PCa and MDA-MB-231 triple negative breast cancer cells, data are the mean±SD (N=2 replicates) number of colonies in 7 day colony formation assays. All data are expressed as the percentage of untreated control cells. Cells were treated with 10 μM KBU2046 or vehicle (CO), and the indicated concentration and type of chemotherapy.
# [2] = tested on: PC3-M cells; experiment: PCa subcutaneous implantation, tumor growth; format: in vivo; settings: oral 80 mg KBU2046/kg, weekly intraperitoneal docetaxel 20 mg/kg, KBU2046 added to control or docetaxel treated mice
# Procedure: FIG. 1A depicts the effect of chemotherapy on the growth of androgen independent PC3-M PCa cells in vitro. Data are the mean±SEM (N=3 replicates) of cell viability in a 3 day growth assay in the presence of 10 μM KBU2046 or vehicle (control) treated with docetaxel or cabazitaxel. FIG. 1B depicts the effect of chemotherapy on the growth of androgen independent PCa cells in vivo. Mice received subcutaneous implants of PC3-M cells, were monitored until tumors were detectable (250 mm^3), and then treated daily with oral 80 mg KBU2046/kg (46) or vehicle (CO) and with weekly intraperitoneal docetaxel (doc) at 0 or 20 mg/kg, beginning on day 1, and tumor size measured. Data are mean±SEM, with N=20 mice per cohort.
# PCa subcutaneous implantation: 2.5×10^5 PC3-M cells in sterile PBS were implanted into the right flank of 6-7 week old male athymic nude mice (Charles River) and tumor growth measurements were performed twice a week as previously described by us (Gordon et al., Chemotherapy-induced monoamine oxidase expression in prostate carcinoma functions as a cytoprotective resistance enzyme and associates with clinical outcomes. PLoS One 9, e104271 (2014)). […] Tumor measurements were obtained in a blinded fashion, and tumor volumes were calculated with the following formula: length×(width)^2×0.5.
# [3] = tested on: PC3-M-luc cells; experiment: PCa orthotopic implantation, primary tumor growth and lung metastasis; format: in vivo, mice; settings: orthotopic PC3-M-luc, 150 mg/kg KBU2046 daily
# Procedure: To assess the efficacy of a spectrum of docetaxel concentrations, mice received orthotopic implants of PC3-M-luc cells, were treated with 0, 10 or 20 mg/kg docetaxel, and tumor growth monitored with weekly IVIS imaging. […] Subsequently, mice with orthotopic implants of PC3-M-luc cells were treated with docetaxel, KBU2046, docetaxel+KBU2046 or vehicle, as denoted, and effects on primary tumor growth and lung metastasis quantified (FIGS. 2A, 2B, and 2C).
# Cohorts of N=10 mice bearing orthotopic implants of PC3-M-luc cells were treated daily with 150 mg/kg KUB2046 (46), intraperitoneal docetaxel 7.5 mg/kg weekly (doc), the combination (doc+46), or with oral and intraperitoneal vehicle (CO). KBU2046 treatment began 3 days before implantation and docetaxel began 1 week after. (A) Lung metastasis measured by qPCR for human Alu sequences, expressed as percent control (B) Weekly IVIS imaging of tumor. (C) Tumor weight. * denotes P<0.05 for differences between cohorts denoted by bars. All data are mean±SEM.
# PCa orthotopic implantation: Orthotopic implantation of 2.5×10^5 PC3M-luc into 7-8 week old male athymic mice was performed as previously described by us (5, 52 Xu et al., above; and Pavese et al., J Vis Exp, e50873 (2013)). Daily oral gavage treatment with 150 mg/kg KBU2046 or was initiated 3 days prior to implantation and continued throughout the duration of the study. Weekly IP injections with 7.5 mg/kg docetaxel or control were administered beginning one week post implantation. Primary tumor out growth was monitored via weekly IVIS imaging. At the completion of the study the primary tumor was resected and weighed and lungs were resected and snap frozen. To determine the human PCa metastatic burden in each mouse lung, the snap frozen tissue was pulverized, DNA isolated and Alu-sequencing performed as previously described (19). […] (SEQ ID NO: 3). The 144RH probe was labeled with a 5′ fluorescent reporter (6-FAM) and a 3′ fluorescent quencher (Black Hole Quencher). The relative content of human DNA was calculated with using the comparative CT method, CT (sample)-CT(negative control). All samples were run in triplicate and were repeated.
structure (smiles),measurement,setting,value
"O=C1c2ccccc2OCC1c1ccc(F)cc1 (stereo not shown) [KBU2046, 3-(4-fluorophenyl)chroman-4-one]",effect on activity of adriamycin,"[1]; 10 μM KBU2046, PC3-M cells, FIG. 14",does not inhibit
same,effect on activity of vinblastine,"[1]; 10 μM KBU2046, PC3-M cells, FIG. 16",does not inhibit
same,effect on activity of taxol,"[1]; 10 μM KBU2046, PC3-M cells, FIG. 18",does not inhibit
same,"interference upon cytotoxic action of adriamycin, taxol and vinblastine","[1]; KBU2046 co-administered, PC3-M cells",lack of interference
same,tumor growth,[2],did not significantly affect
same,decrease of tumor weight compared to control,[3]; docetaxel 7.5 mg/kg weekly,no significant effect
same,decrease of lung metastasis compared to control (human Alu qPCR),[3]; docetaxel 7.5 mg/kg weekly intraperitoneal,20%
